Measured values reported in the NIST ThermoML archive (doi:10.1016/j.jct.2018.04.019).
“And” between values parts separate entries of the source, which are not always exact repeats. Equal values may be shown once. ± gives the expanded uncertainty stated by the source.

Details: Liquid; for speed of sound: Frequency=5 MHz, Pulse-echo method; for mass density: Vibrating tube method

CCCCCCCCC [nonane]
Details | mass density | speed of sound
373.14 K, 360090 kPa | – | 2160.1 ± 2.6 m/s
373.14 K, 389860 kPa | – | 2212.9 ± 2.7 m/s
373.15 K, 1010 kPa | 654.52 ± 0.63 kg/m3 | –
373.15 K, 5050 kPa | 659.99 ± 0.64 kg/m3 | –
373.15 K, 10030 kPa | 666.13 ± 0.66 kg/m3 | –
373.15 K, 15070 kPa | 671.78 ± 0.69 kg/m3 | –
373.15 K, 20030 kPa | 677.04 ± 0.71 kg/m3 | –
373.15 K, 25060 kPa | 681.94 ± 0.74 kg/m3 | –
373.15 K, 30040 kPa | 686.51 ± 0.77 kg/m3 | –
373.15 K, 35060 kPa | 690.83 ± 0.8 kg/m3 | –
373.15 K, 40020 kPa | 694.95 ± 0.83 kg/m3 | –
373.15 K, 45070 kPa | 698.87 ± 0.86 kg/m3 | –
373.15 K, 50070 kPa | 702.65 ± 0.9 kg/m3 | –
373.15 K, 55060 kPa | 706.23 ± 0.93 kg/m3 | –
373.15 K, 60040 kPa | 709.66 ± 0.96 kg/m3 | –
373.15 K, 65030 kPa | 712.95 ± 1 kg/m3 | –
398.14 K, 1100 kPa | – | 835.44 ± 1.9 m/s and 835.46 ± 1.9 m/s
398.14 K, 30140 kPa | – | 1079.8 ± 1.8 m/s
398.14 K, 60240 kPa | – | 1254.1 ± 1.7 m/s
398.14 K, 90220 kPa | – | 1391.9 ± 1.8 m/s
398.14 K, 120200 kPa | – | 1508.5 ± 1.8 m/s
398.14 K, 150150 kPa | – | 1610.2 ± 2 m/s
398.14 K, 180170 kPa | – | 1701.7 ± 2.1 m/s
398.14 K, 210020 kPa | – | 1784.3 ± 2.2 m/s
398.14 K, 240150 kPa | – | 1861.3 ± 2.3 m/s
398.14 K, 270210 kPa | – | 1933.1 ± 2.4 m/s
398.14 K, 299860 kPa | – | 1999.6 ± 2.5 m/s
398.14 K, 330010 kPa | – | 2063.7 ± 2.6 m/s
398.14 K, 360010 kPa | – | 2124 ± 2.6 m/s
398.14 K, 389950 kPa | – | 2182.2 ± 2.7 m/s
398.15 K, 1020 kPa | 633.06 ± 0.64 kg/m3 | –
398.15 K, 5020 kPa | 639.53 ± 0.65 kg/m3 | –
398.15 K, 5030 kPa | 639.58 ± 0.65 kg/m3 | –
398.15 K, 10050 kPa | 646.89 ± 0.67 kg/m3 | –
398.15 K, 15070 kPa | 653.53 ± 0.7 kg/m3 | –
398.15 K, 20020 kPa | 659.49 ± 0.72 kg/m3 | –
398.15 K, 25030 kPa | 665.05 ± 0.75 kg/m3 | –
398.15 K, 30050 kPa | 670.22 ± 0.78 kg/m3 | –
398.15 K, 35050 kPa | 675.1 ± 0.82 kg/m3 | –
398.15 K, 40020 kPa | 679.63 ± 0.85 kg/m3 | –
398.15 K, 45070 kPa | 683.97 ± 0.89 kg/m3 | –
398.15 K, 50020 kPa | 688.07 ± 0.92 kg/m3 | –
398.15 K, 55040 kPa | 692.01 ± 0.96 kg/m3 | –
398.15 K, 60030 kPa | 695.72 ± 0.99 kg/m3 | –
398.15 K, 65040 kPa | 699.37 ± 1 kg/m3 | –
423.14 K, 1110 kPa | – | 747.67 ± 2.1 m/s
423.14 K, 1120 kPa | – | 747.72 ± 2.1 m/s
423.14 K, 29690 kPa | – | 1013.6 ± 1.8 m/s
423.14 K, 60210 kPa | – | 1199.1 ± 1.7 m/s
423.14 K, 90050 kPa | – | 1341 ± 1.7 m/s
423.14 K, 120570 kPa | – | 1462.7 ± 1.8 m/s
423.14 K, 150110 kPa | – | 1565.4 ± 1.9 m/s
423.14 K, 180160 kPa | – | 1658.8 ± 2 m/s
423.14 K, 210180 kPa | – | 1744 ± 2.2 m/s
423.14 K, 239990 kPa | – | 1822.3 ± 2.3 m/s
423.14 K, 270120 kPa | – | 1895.7 ± 2.4 m/s
423.14 K, 299980 kPa | – | 1964.4 ± 2.4 m/s
423.14 K, 330040 kPa | – | 2029.4 ± 2.5 m/s
423.14 K, 360020 kPa | – | 2089.7 ± 2.6 m/s
423.14 K, 389720 kPa | – | 2146.1 ± 2.7 m/s
423.15 K, 1020 kPa | 610.45 ± 0.65 kg/m3 | –
423.15 K, 5030 kPa | 618.47 ± 0.66 kg/m3 and 618.42 ± 0.66 kg/m3 | –
423.15 K, 10030 kPa | 627.15 ± 0.68 kg/m3 | –
423.15 K, 15030 kPa | 634.86 ± 0.71 kg/m3 | –
423.15 K, 20040 kPa | 641.8 ± 0.74 kg/m3 | –
423.15 K, 25040 kPa | 648.1 ± 0.77 kg/m3 | –
423.15 K, 30020 kPa | 653.92 ± 0.8 kg/m3 | –
423.15 K, 35050 kPa | 659.35 ± 0.84 kg/m3 | –
423.15 K, 40020 kPa | 664.4 ± 0.87 kg/m3 | –
423.15 K, 45020 kPa | 669.15 ± 0.91 kg/m3 | –
423.15 K, 50040 kPa | 673.7 ± 0.95 kg/m3 | –
423.15 K, 55020 kPa | 677.97 ± 0.98 kg/m3 | –
423.15 K, 60030 kPa | 682.03 ± 1 kg/m3 | –
423.15 K, 65040 kPa | 685.95 ± 1.1 kg/m3 | –
448.15 K, 1000 kPa | 586.37 ± 0.66 kg/m3 | –
448.15 K, 1040 kPa | – | 660.9 ± 2.3 m/s
448.15 K, 5020 kPa | 596.41 ± 0.67 kg/m3 and 596.46 ± 0.67 kg/m3 | –
448.15 K, 10040 kPa | 607.05 ± 0.69 kg/m3 | –
448.15 K, 15010 kPa | 616.06 ± 0.72 kg/m3 | –
448.15 K, 20010 kPa | 624 ± 0.75 kg/m3 | –
448.15 K, 25040 kPa | 631.27 ± 0.79 kg/m3 | –
448.15 K, 30030 kPa | 637.78 ± 0.82 kg/m3 | –
448.15 K, 30440 kPa | – | 960.29 ± 1.9 m/s
448.15 K, 35030 kPa | 643.8 ± 0.86 kg/m3 | –
448.15 K, 40010 kPa | 649.38 ± 0.9 kg/m3 | –
448.15 K, 45050 kPa | 654.67 ± 0.93 kg/m3 | –
448.15 K, 50020 kPa | 659.58 ± 0.97 kg/m3 | –
448.15 K, 55040 kPa | 664.24 ± 1 kg/m3 | –
448.15 K, 60030 kPa | 668.62 ± 1.1 kg/m3 | –
448.15 K, 60490 kPa | – | 1150.5 ± 1.7 m/s
448.15 K, 65020 kPa | 672.85 ± 1.1 kg/m3 | –
448.15 K, 90220 kPa | – | 1296 ± 1.7 m/s
448.15 K, 120320 kPa | – | 1418.8 ± 1.8 m/s
448.15 K, 150280 kPa | – | 1525 ± 1.9 m/s
448.15 K, 180150 kPa | – | 1619.4 ± 2 m/s
448.15 K, 209900 kPa | – | 1704.9 ± 2.1 m/s
448.15 K, 239920 kPa | – | 1784.3 ± 2.2 m/s
448.15 K, 270080 kPa | – | 1858.4 ± 2.3 m/s
448.15 K, 299830 kPa | – | 1929.8 ± 2.4 m/s
448.15 K, 330050 kPa | – | 1995.9 ± 2.5 m/s
448.15 K, 359980 kPa | – | 2059.2 ± 2.6 m/s
448.15 K, 390310 kPa | – | 2115.1 ± 2.6 m/s
473.15 K, 1010 kPa | – | 574.55 ± 2.6 m/s
473.15 K, 5010 kPa | 573.14 ± 0.69 kg/m3 | –
473.15 K, 10040 kPa | 586.15 ± 0.71 kg/m3 | –
473.15 K, 15040 kPa | 596.86 ± 0.74 kg/m3 | –
473.15 K, 20020 kPa | 606.05 ± 0.77 kg/m3 | –
473.15 K, 25050 kPa | 614.28 ± 0.81 kg/m3 | –
473.15 K, 30020 kPa | 621.6 ± 0.84 kg/m3 | –
473.15 K, 30430 kPa | – | 906.04 ± 1.9 m/s
473.15 K, 35030 kPa | 628.3 ± 0.88 kg/m3 | –
473.15 K, 40050 kPa | 634.51 ± 0.92 kg/m3 | –
473.15 K, 45050 kPa | 640.25 ± 0.96 kg/m3 | –
473.15 K, 50040 kPa | 645.6 ± 1 kg/m3 | –
473.15 K, 55020 kPa | 650.62 ± 1 kg/m3 | –
473.15 K, 60010 kPa | 655.39 ± 1.1 kg/m3 | –
473.15 K, 60390 kPa | – | 1104.6 ± 1.6 m/s
473.15 K, 65010 kPa | 659.92 ± 1.1 kg/m3 | –
473.15 K, 90200 kPa | – | 1255.4 ± 1.7 m/s
473.15 K, 120100 kPa | – | 1381 ± 1.8 m/s
473.15 K, 150230 kPa | – | 1490.6 ± 1.9 m/s
473.15 K, 180260 kPa | – | 1587.6 ± 2 m/s
473.15 K, 210230 kPa | – | 1675.8 ± 2.1 m/s
473.15 K, 240070 kPa | – | 1755.4 ± 2.2 m/s
473.15 K, 270130 kPa | – | 1830.8 ± 2.3 m/s
473.15 K, 300080 kPa | – | 1901.9 ± 2.4 m/s
473.15 K, 330030 kPa | – | 1964.8 ± 2.5 m/s
473.15 K, 360070 kPa | – | 2026.3 ± 2.6 m/s
473.15 K, 390060 kPa | – | 2084 ± 2.6 m/s
